Assay results from patent US7422854B1, “Cholesterol reduction signature” (priority 2002, dated 2008).

Legend:
livers of rats = assay: Signature Projection Score (SPS): match of liver gene expression to the Cholesterol Reduction Signature; assay type: in vivo; details: dose 10 (mg/ml), rat liver, maximum of training treatments = 100
Experimental: (§1) After determination of the MTD and FED for a compound, each compound was dissolved in a vehicle for administration on day 1 of the study (additional daily doses were stored as frozen aliquots from this initial formulation). Each compound was administered to three individual male Sprague-Dawley rats for each of the two doses (MTD and FED) for one of four different times (0.25 day, 1 day, 3 days, and 5 days), yielding a total of up to 24 animals per compound study. Vehicle choice was based on solubility of the compound, effect of food on adsorption, and the vehicles used in the literature reports examined during the FED selection investigations, described above. Generally, the route and vehicle in which the FED was defined are used. When there was a choice of routes and vehicles, oral routes were chosen over injection routes. Many compounds, especially oncolytics, are only administerable intravenously. In such cases, the compound was administered as an intravenous formulation into the tail vein. Orally administered compounds were given dissolved in either water, 1% carboxymethycellulose (CMC) or corn oil. Intravenously and intraperitoneally administered compounds were given in 0.9% saline. Subcutaneously administered compounds were given in corn oil. Animal body weights were determined at 1 day and, where appropriate, at 4 days, before necropsy, and clinical observations were made on a daily basis. Control animals were dosed with vehicle only. Three male animals were used for each dose and time combination used for the compound treatment.
(§2) Tissue harvest and handling: After the allocated treatment time, the tissues from the animals were harvested. […] All the tissues collected were divided to provide samples for histopathological analyses, and the remainder of each tissue was then snap-frozen. […] The following blood constituents were measured: Blood Urea Nitrogen (BUN), Creatinine (CRE), Glucose (GLU), Alanine Transaminase (ALT), Aspartate Aminotrans-ferase (AST), Alkaline Phosphatase (ALP), Total Bilirubin (TBI), Sodium (SOD), Potassium (POT), Chloride (CHL), Phosphorus (PHO), Total Protein (TPR), Albumin (ALB), Cholesterol (CHO), Creatine Phosphokinase (CPK), Lactate Dehydrogenase (LDH), Carbon Dioxide (CO2), Uric Acid (UA), and Lipase. […] The parameters were measured using a Baker 9000 blood cell analysis instrument according to the manufactures instructions. The following blood constituents were measured: Leukocyte count (WBC), Differential Leukocyte counts, Erythrocyte count (RBC), Hemoglobin concentration (HGB), Hematocrit (HCT), Mean Corpuscular Volume (MCV), Mean Corpuscular Hemoglobin (MCH), Mean Corpuscular Hemoglobin Concentration (MCC), Thrombocyte Count (PLC). Histopathology: Histopathological analyses of hematoxylin and eosin-stained tissue sections were performed and peer-reviewed by board-certified (Diplomate, American College of Veterinary Pathologists) veterinary pathologists. Preparation of Enriched mRNA: Punch Biopsies were Taken from the Frozen Tissues and were completely homogenized before being processed using the MagNA Pure robot. (Roche Diagnostics Corp., Indianapolis, Ind.) in combination with the MagNA Pure LC RNA Isolation kit II (Roche Diagnostics Corp). The amount of lysis buffer was adjusted to allow 1 ml per 50 mg for liver tissue, or 1 ml per 80 mg for all other tissues. After complete homogenization and before loading of the samples into the 32-well MagNA Pure plate, the samples were syringed 5-6 times using a 20-gauge 3-ml syringe to ensure a smooth solution for robotic processing. Tissue sample processing was performed in duplicate wells (loading 150 μl of homogenized sample and 150 μl of additional lysis buffere to each well) of the MagNA Pure LC, which is programmed to extract mRNA using oligo-dT selection technology into a final elution volume of 100 μl. Poly A(+) RNA sample concentration was performed using a standard ethanol precipitation protocol in the presence of glycogen (50 μg/ml).

rat = details: rat, 4-7 daily dosing; cited from earlier work
male Sprague-Dawley rats = assay: Cholesterol Lowering Index: total blood cholesterol (clinical chemistry) in treated versus vehicle-treated rats; assay type: in vivo, rat; details: male rats; for Chol index (fold reduction): vs vehicle
Description: Compound dosing was based on the acute dose LD50s recorded in published reference or literature sources. […] The MTD (maximum tolerated dose) was then selected as the dose at which the animals […] 5-10% body weight during the 5-day range finding study. […] In addition, the clinical observations must show no or mild clinical signs during the whole of the range-finding study. At the next highest dose, signs and symptoms of adverse effects and exceeding those of the MTD should be seen to occur. Should these criteria not be met, the range-finding study is repeated using a modified dose range.
as §1
as §2, with “Corp).” for “Corp). The amount of lysis buffer was adjusted to allow 1 ml per 50 mg for liver tissue, or 1 ml per 80 mg for all other tissues. After complete homogenization and before loading of the samples into the 32-well MagNA Pure plate, the samples were syringed 5-6 times using a 20-gauge 3-ml syringe to ensure a smooth solution for robotic processing. Tissue sample processing was performed in duplicate wells (loading 150 μl of homogenized sample and 150 μl of additional lysis buffere to each well) of the MagNA Pure LC, which is programmed to extract mRNA using oligo-dT selection technology into a final elution volume of 100 μl. Poly A(+) RNA sample concentration was performed using a standard ethanol precipitation protocol in the presence of glycogen (50 μg/ml).”

## C#C[C@]1(O)CC[C@H]2[C@@H]3CCc4cc(O)ccc4[C@H]3CC[C@@]21C [ETHINYLESTRADIOL, (17α)-norpregna-1,3,5(10)-trien-20-yne-3,17-diol]
Livers of rats; time point 1 day
  SPS: 50
Livers of rats; time point 5 days
  SPS: 76.2
rat
  reduction in total cholesterol: 89%
Male Sprague-Dawley rats; Table 4, dose 10, time point 5 days
  Cholesterol Index (fold reduction): 3.9 fold reduction
Male Sprague-Dawley rats; dose 10, time 3 days
  Chol index (fold reduction): 3.65 fold reduction
Male Sprague-Dawley rats; dose 10, time 5 days
  Chol index (fold reduction): 4.09 fold reduction
